In article PMC6747087, “Characterization of Tachyplesin Peptides and Their Cyclized Analogues to Improve Antimicrobial and Anticancer Properties” (International Journal of Molecular Sciences, 2019):
In brackets after ≈: the same amount, converted by molar mass. Residues, ends and D or L forms follow the SMILES beside them.

Tests used:
[1] = tested on: human red blood cells (RBCs); experiment: Hemolytic activity against human red blood cells; assay type: cell-based; conditions: human RBCs 0.25% (v/v), 1 h, 37 °C; mean ± SEM
Experimental: (§1) A small amount of blood was collected from three healthy human donors. The blood was immediately diluted in PBS and centrifuged 4–5 times for 1 min at 4000 rpm to wash and separate the human red blood cells (RBCs). RBCs suspension (0.25% (v/v) in PBS) was incubated with peptides with two-fold serial dilutions of the peptide (highest concentration tested was 128 µM, and the lowest was 0.25 µM) in a 96-well plate. Melittin, a membrane disruptive peptide, was used as control. The plates were incubated for 1 h at 37 °C. After incubation, the plates were centrifuged for 5 min at 1000 rpm to pellet any non-lysed RBCs. A total of 100 µL of the supernatant were transferred to a new 96-well plate. The hemoglobin released into the supernatant from lysed cells was measured by absorbance at 415 nm using the Tecan infinite M1000Pro multiplate reader (Männedorf, Switzerland).

E. coli ATCC 25922 = experiment: MIC against planktonic bacteria (resazurin); assay type: cell-based, Escherichia coli; conditions: Mueller Hinton Broth
Experimental: (§2) S. aureus ATCC 25923, S. aureus ATCC 6538, E. coli ATCC 25922, and E. coli DC2 CGSC 7139 were grown in Mueller Hinton Broth (Sigma Aldrich, St. Luis, USA). Bacterial cultures in the exponential growth phase were diluted to an OD600nm of 0.001 and seeded into 96-well plates. Peptides at different concentrations, starting at 64 µM and with two-fold serial dilutions (i.e., 64, 32, 16, 8, 4, 2, 1, 0.5, 0.25, 0.125 and 0.0625 µM), were incubated with cells; 0.05% (v/v) resazurin was added to the cultures the next day and the conversion to resorufin was measured after 1 h of incubation at 37 °C using a 565 nm excitation and 584 nm emission wavelength, as above.

E. coli DC2 CGSC 7139 = experiment: MIC against planktonic bacteria (resazurin); assay type: cell-based, Escherichia coli; conditions: Mueller Hinton Broth
Experimental: as §2

S. aureus ATCC 25923 = experiment: MIC against planktonic bacteria (resazurin); assay type: cell-based, Staphylococcus aureus; conditions: Mueller Hinton Broth
Experimental: as §2

S. aureus ATCC 6538 = experiment: MIC against planktonic bacteria (resazurin); assay type: cell-based, Staphylococcus aureus; conditions: Mueller Hinton Broth
Experimental: as §2

[2] = Activity against preformed biofilm (resazurin metabolic activity); assay type: cell-based, Staphylococcus aureus; conditions: 24 h preformed biofilm, 4 h peptide treatment; read-out: CC50 (reduction of 50% of the metabolically active cell population)
Experimental: S. aureus ATCC 6538 (1 × 10^6 cfu/mL) was cultured in Tryptic Soy Broth, containing 0.25% (w/v) glucose and incubated in 96-well microtiter flat-bottomed polystyrene plates for 24 h at 37 °C. Preformed biofilms were then washed with Mueller Hinton Broth to remove non-adherent cells. Two-fold serial dilutions of each peptide (highest concentration tested was 32 µM and lowest was 0.25 µM) were added to the biofilms for 4 h. Untreated 24 h preformed biofilms were used as a control. The metabolic activity of biofilm-embedded cells was determined using a resazurin reduction fluorometric assay as previously described.

[3] = Cytotoxicity assay (resazurin); assay type: cell-based, Human; conditions: ± SEM, n ≥ 3
Experimental: Cells were grown in cell culture flasks and incubated in a humidified atmosphere (5% CO2, 37 °C). The cancer cell lines HeLa and the control cell line HaCaT were grown in a DMEM medium supplemented with 1% (v/v) penicillin/streptomycin and 10% (v/v) fetal bovine serum (FBS). The cancer cell lines MM96L, HT144 and WM164 were grown in a RPMI medium supplemented with 1% (v/v) penicillin/[…], 10% (v/v) FBS, 20 mM L-glutamine, and 10 mM sodium pyruvate. Cell cultures were maintained by dilution upon reaching confluence, each 48–72 h. More information about the cell lines is available in Tables S2 and S3.
Cells were seeded into 96-well flat-bottom plates at 5 × 10^3 cells/well and incubated overnight. The medium was removed and replaced with 90 µL serum-free medium, 10 µL of 10x concentrated peptide solutions in PBS were added. PBS was added as blank and 0.1% (v/v) Triton X-100 was used to establish 100% of cell death. After 2 h incubation at 37 °C, 10 µL of filtered 0.05% (w/v) resazurin solution was added to each well [70]. Resazurin is converted to the pink and fluorescent compound resorufin by viable cells. After incubation overnight, the fluorescence intensity (λex = 565 nm and λem = 584 nm) was measured with the Tecan infinite M1000Pro multiplate reader (Männedorf, Switzerland).

in vitro = conditions: 25% (v/v) human serum, 24 h, 37 °C, 50 µM peptide, RP-HPLC peak area vs time zero
Experimental: The serum stability assay was carried out as previously described with some modifications. Briefly, tachyplesin variants were incubated in 25% (v/v) human serum diluted in phosphate-buffered saline (PBS) at a final concentration of 50 µM at 37 °C. Triplicates were collected at time 0 h and 24 h and the serum proteins were precipitated with acetonitrile (1:3 ratio) supplemented with 3% TFA. Samples were kept on ice for 10 min before centrifugation at 17,000× g for 10 min at 4 °C. The peptide containing supernatant of each sample was harvested and quantified using RP-HPLC (10 to 45% solvent B, 1%/min gradient). The percentage of peptide stability in human serum was calculated by comparing the area of the peptide peak obtained at 24 h to that at time 0 h. A linear peptide containing 18 amino acid residues ([…]) was included as a control susceptible to proteolytic degradation.

[4] = Hemolytic activity against human red blood cells; assay type: cell-based; conditions: at 64 µM peptide, human RBCs; read-out: RBCs lysed (hemolysis)
Experimental: as §1

[5] = HT144, 2 h peptide in serum-free medium
[6] = HaCaT non-cancerous control, 2 h peptide in serum-free medium
[7] = HeLa, 2 h peptide in serum-free medium
[8] = MM96L, 2 h peptide in serum-free medium
[9] = WM164, 2 h peptide in serum-free medium

SMILES	HC50 (concentration required to induce 50% lysis in RBCs) [1]	MIC (E. coli ATCC 25922)	MIC (E. coli DC2 CGSC 7139)	MIC (S. aureus ATCC 25923)	MIC (S. aureus ATCC 6538)	Concentration reducing biofilm metabolic activity by 50% [2]	CC50 [3, 5]	CC50 [3, 6]	CC50 [3, 7]	CC50 [3, 8]	CC50 [3, 9]	peptide remaining in human serum (in vitro)	hemolysis [4]
CC[C@H](C)[C@@H]1NC(=O)CNC(=O)[C@H](CCCNC(=N)N)NC(=O)[C@H](Cc2ccc(O)cc2)NC(=O)[C@@H]2CSSC[C@H](NC1=O)C(=O)N[C@@H](Cc1ccc(O)cc1)C(=O)N[C@@H](CCCNC(=N)N)C(=O)N[C@@H](CCCCN)C(=O)N[C@H]1CSSC[C@H](NC(=O)[C@H](Cc3c[nH]c4ccccc34)NC(=O)[C@H](CCCNC(=N)N)NC(=O)CNC(=O)[C@H](CCCNC(=N)N)NC1=O)C(=O)N[C@@H](Cc1ccccc1)C(=O)N[C@@H](CCCNC(=N)N)C(=O)N[C@@H](C(C)C)C(=O)N2 [cTII, Cyclic Tachyplesin II] (HELM PEPTIDE1{C.F.R.V.C.Y.R.G.I.C.Y.R.K.C.R.G.R.W}$PEPTIDE1,PEPTIDE1,1:R3-14:R3|PEPTIDE1,PEPTIDE1,5:R3-10:R3|PEPTIDE1,PEPTIDE1,1:R1-18:R2$$$V2.0)	64.1 ± 9.4 µM	1 to 2 µM	4 to 8 µM	2 to 8 µM	8 µM (≈ 18.4 µg/mL)	19.4 ± 1.5 µM	800 ± 40 nM	2400 ± 300 nM	7200 ± 400 nM	1100 ± 100 nM	2400 ± 300 nM	–	–
CC[C@H](C)[C@H](NC(=O)[C@H](CC(C)C)NC(=O)[C@H](CCC(N)=O)NC(=O)CNC(=O)[C@H](CO)NC(=O)CNC(=O)CNC(=O)CNC(=O)CNC(=O)[C@@H](N)CCCCN)C(=O)N[C@@H](CC(=O)O)C(=O)N[C@@H](CO)C(=O)N[C@@H](CCSC)C(=O)N[C@@H](C)C(=O)N[C@@H](CC(N)=O)C(=O)N[C@@H](CO)C(=O)N[C@@H](Cc1ccccc1)C(=O)N[C@H](C(=O)O)C(C)C [KGGGGSGQLIDSMANSFV, reference compound] (H-KGGGGSGQLIDSMANSFV-OH)	–	–	–	–	–	–	–	–	–	–	–	fully degraded	–
CC[C@H](C)[C@@H]1NC(=O)CNC(=O)[C@H](CCCNC(=N)N)NC(=O)[C@H](Cc2ccc(O)cc2)NC(=O)[C@@H]2CSSC[C@H](NC1=O)C(=O)N[C@@H](Cc1ccc(O)cc1)C(=O)N[C@@H](CCCNC(=N)N)C(=O)N[C@@H](CCCCN)C(=O)N[C@H]1CSSC[C@H](NC(=O)[C@H](Cc3c[nH]c4ccccc34)NC(=O)[C@H](CCCCN)NC(=O)CNC(=O)[C@H](CCCNC(=N)N)NC1=O)C(=O)N[C@@H](Cc1ccccc1)C(=O)N[C@@H](CCCNC(=N)N)C(=O)N[C@@H](C(C)C)C(=O)N2 [cTIII, Cyclic Tachyplesin III] (HELM PEPTIDE1{C.F.R.V.C.Y.R.G.I.C.Y.R.K.C.R.G.K.W}$PEPTIDE1,PEPTIDE1,1:R3-14:R3|PEPTIDE1,PEPTIDE1,5:R3-10:R3|PEPTIDE1,PEPTIDE1,1:R1-18:R2$$$V2.0)	>128 µM	1 to 2 µM	4 to 8 µM	2 to 8 µM	8 µM (≈ 18.2 µg/mL)	18 ± 1.4 µM	900 ± 30 nM	7500 ± 300 nM	9300 ± 400 nM	1700 ± 100 nM	1300 ± 100 nM	–	–
CC[C@H](C)[C@@H]1NC(=O)CNC(=O)[C@H](CCCNC(=N)N)NC(=O)[C@H](Cc2ccc(O)cc2)NC(=O)[C@@H]2CSSC[C@H](NC1=O)C(=O)N[C@@H](Cc1ccc(O)cc1)C(=O)N[C@@H](CCCNC(=N)N)C(=O)N[C@@H](CCCNC(=N)N)C(=O)N[C@H]1CSSC[C@H](NC(=O)[C@H](Cc3c[nH]c4ccccc34)NC(=O)[C@H](CCCCN)NC(=O)CNC(=O)[C@H](CCCNC(=N)N)NC1=O)C(=O)N[C@@H](Cc1ccccc1)C(=O)N[C@@H](CCCNC(=N)N)C(=O)N[C@@H](C(C)C)C(=O)N2 [cTI, Cyclic Tachyplesin I] (HELM PEPTIDE1{C.F.R.V.C.Y.R.G.I.C.Y.R.R.C.R.G.K.W}$PEPTIDE1,PEPTIDE1,1:R3-14:R3|PEPTIDE1,PEPTIDE1,5:R3-10:R3|PEPTIDE1,PEPTIDE1,1:R1-18:R2$$$V2.0)	106.9 ± 21.0 µM	1 µM (≈ 2.3 µg/mL)	4 µM (≈ 9.22 µg/mL)	2 to 8 µM	8 µM (≈ 18.4 µg/mL)	17.8 ± 3.6 µM	1400 ± 100 nM	7900 ± 500 nM	6700 ± 600 nM	1300 ± 100 nM	2700 ± 100 nM	did not degrade	–
CC[C@H](C)[C@@H]1NC(=O)CNC(=O)[C@H](CCCNC(=N)N)NC(=O)[C@H](Cc2ccc(O)cc2)NC(=O)[C@@H]2CSSC[C@H](NC1=O)C(=O)N[C@@H](Cc1ccc(O)cc1)C(=O)N[C@@H](CCCNC(=N)N)C(=O)N[C@@H](CCCCN)C(=O)N[C@H](C(=O)N[C@@H](CCCNC(=N)N)C(N)=O)CSSC[C@H](NC(=O)[C@H](Cc1c[nH]c3ccccc13)NC(=O)[C@@H](N)CCCNC(=N)N)C(=O)N[C@@H](Cc1ccccc1)C(=O)N[C@@H](CCCNC(=N)N)C(=O)N[C@@H](C(C)C)C(=O)N2 [TII, Tachyplesin II] (HELM PEPTIDE1{R.W.C.F.R.V.C.Y.R.G.I.C.Y.R.K.C.R.[am]}$PEPTIDE1,PEPTIDE1,3:R3-16:R3|PEPTIDE1,PEPTIDE1,7:R3-12:R3$$$V2.0)	55.4 ± 6.6 µM	0.125 to 0.5 µM	0.5 to 1 µM	1 to 4 µM	4 to 8 µM	23.1 ± 2.9 µM	2000 ± 100 nM	3700 ± 200 nM	18000 ± 3900 nM	1600 ± 100 nM	1600 ± 100 nM	–	56%
